“Also recorded” adds a separate entry of the source.
Key:
[1] = test system: human cardiac myocytes (HCM); assay: NECA-induced IL-6 release from human cardiac myocytes (Example 7); format: cell-based; conditions: for effect of NECA on HCM (IL-6 release): NECA in combination with antagonist
Protocol: This example uses human cardiac myocytes to test two other A2B adenosine receptor antagonists on their effect on NECA-induced IL-6 release.
Human cardiac myocytes (HCM) were treated with NECA alone, or in combination with Compound A, Compound B (N-[5-(1-cyclopropyl-2,6-dioxo-3-propyl-2,3,6,7-tetrahydro-1H-purin-8-yl)-pyridin-2-yl]-N-ethyl-nicotinamide, also known as ATL-801) or Compound C (2-(4-benzyloxy-phenyl)-N-[5-(2,6-dioxo-1,3-dipropyl-2,3,6,7-tetrahydro-1H-purin-8-yl)-1-methyl-1H-pyrazol-3-yl]-acetamide).

[2] = test system: rats with MI (25 minutes coronary occlusion followed by reperfusion); assay: Rat model of post-MI remodeling: serial echocardiograms (Example 6); format: in vivo
Protocol: The effects of Compound A in a rat model of post-MI remodeling and VT were determined. MI was caused by 25 minutes occlusion at the left anterior descending coronary ligation followed by reperfusion. One week later, rats were administered either vehicle or Compound A (100 mg/kg) once daily by oral gavage. Serial echocardiograms (ECHOs) to measure LV ejection fraction (LVEF), stroke volume and LV end systolic volume (LVESV) were obtained at baseline, 1 week and 5 week post-MI. Electrophysiological studies, optical mapping, histology and biomarker analysis were conducted at 5 week post-MI.

[3] = test system: primary human cardiac fibroblasts (HCF); assay: NECA-induced release of IL-6, collagen, ST-2, PAPPA and expression of fibrotic markers in human cardiac fibroblasts (Example 2); format: cell-based
Protocol: Real-time RT-PCR was performed as published using Stratagene PCR equipment (La Jolla, Calif.). Zhong H., et al., “A2B adenosine receptors increase cytokine release by bronchial smooth muscle cells,” American Journal of Respiratory Cell and Molecular Biology, 30(1): 118-125 (2004).
Expression of AdoR, α-smooth muscle actin and α-1 pro-collagen was determined using real-time RT-PCR. The concentration of IL-6, soluble ST-2 and PAPPA (Pregnancy-associated plasma protein A) in the cell supernatants were measured using ELISA, and the concentration of soluble collagen were determined using Sircol™ collagen assay.

CCCn1c(=O)n(C2CC2)c(=O)c2[nH]c(-c3ccc(N(CC)C(=O)c4cccnc4)nc3)nc21 [Compound B, N-[5-(1-cyclopropyl-2,6-dioxo-3-propyl-2,3,6,7-tetrahydro-1H-purin-8-yl)-pyridin-2-yl]-N-ethyl-nicotinamide]
effect of NECA on HCM (IL-6 release) [1]: completely abolished

CCCn1c(=O)c2[nH]c(-c3cc(NC(=O)Cc4ccc(OCc5ccccc5)cc4)nn3C)nc2n(CCC)c1=O [Compound C]
effect of NECA on HCM (IL-6 release) [1]: completely abolished

Cc1ccc(=O)n(-c2ccccc2)c1 [pirfenidone, reference compound]
reduction of LVEF ([2]; post-MI, Example 6 and FIG. 12B): only slowed | LVESV (so in the source): increase and further reduction ([2]; rat post-MI, comparison with Compound A, FIG. 12B): did not increase; also recorded: only slightly inhibited

N-ethylcarboxamide adenosine [NECA]
IL-6 release from human cardiac myocytes ([1]; NECA alone): significantly increased | soluble collagen concentration after stimulation ([3]; NECA 10 μM, basal 3.4±0.2): 6.0 ± 0.4 µg/mL | production of collagen, fold induction ([3]; NECA 10 μM, p<0.05): 1.8±0.1 fold | expression of α-1 pro-collagen ([3]; NECA 10 μM, real-time RT-PCR): increased | expression of α-smooth muscle actin ([3]; NECA 10 μM, real-time RT-PCR): increased | PAPPA concentration after stimulation ([3]; basal 1.4±0.5): 6.2 ± 0.8 ng/mL | soluble ST-2 concentration after stimulation ([3]; basal 1.5±0.1): 2.6 ± 0.1 ng/mL | release of IL-6, maximal increase over the basal level ([3]; concentration-dependent): 2.4±0.1 fold | release of PAPPA, fold induction ([3]; p<0.05): 4.4±0.6 fold | release of soluble ST-2, fold induction ([3]; p<0.05): 1.7±0.1 fold

Source: patent publication US20120258974A1, “USE OF A2B ADENOSINE RECEPTOR ANTAGONISTS FOR TREATING HEART FAILURE AND ARRHYTHMIA IN POST-MYOCARDIAL INFARCTION PATIENTS” (GILEAD SCIENCES, INC., priority 2011, published 2012)
